Reference: patent publication US4093648A, “Therapeutically active benzoic acid derivatives and a process for preparing them” (Recordati S.A. Chemical and Pharmaceutical Company, priority 1975, dated 1978)

Columns and labels:
[1] = test system: cutaneous passive anaphylaxis; conditions: qualitative statement, no data; cited from earlier work
[2] = LD50 determination, intraperitoneal, rats; conditions: rat, in vivo, ip
Procedure: (§1) The evaluation of biological data has been carried out by the most accepted test of the cutaneous passive anaphylaxis on the rat. We have followed the method described by J. Mota on Life Science 12,917 (1963) that was appropriately modified. The LD50 determination was carried out with the common method, by administering intraperitoneally the compound to rats. The chromoglycate was used as a standard. In the first column, are listed the LD50 values (mg/Kg), in the second the ratios [formula] in the last column the ratios [formula]

[3] = test system: cutaneous passive anaphylaxis; assay: cutaneous passive anaphylaxis on the rat (antianaphylactic activity vs. sodium chromoglycate standard); format: in vivo; conditions: for Compound activity / Standard activity: ratio to chromoglycate (standard), cutaneous passive anaphylaxis, rat
From the text: The compounds of formula I and their pharmacologically compatible salts show antianaphylactic activity (which is rather remarkable for some of them) that may be successfully employed to prepare pharmaceutical formulations for human use against the allergic asthma and alimentary allergies. In order to evaluate the antianaphylactic activity, we have performed some comparison tests with sodium chromoglycate that is, at the present time, the most known and the most used antiallergic agent.
as §1

For `O=C(O)c1cc(=O)c2c(OCC(O)COc3cccc4oc(C(=O)O)cc(=O)c34)cccc2o1` [chromoglycate, sodium chromoglycate], the “activity when administered per os (chromoglycate)” value [1] is given as “inactive”.
With `CCC(=O)c1cccc(C(=O)Nc2cccc(Cl)c2)c1O` [Example 4, 2-Hydroxy-3-propionyl (m-chlorophenyl) benzamide] the LD50 ([2]; intraperitoneally to rats) was 2700 mg/kg and the “Compound activity / Standard activity” value [3] was 1.12.
For `CCC(=O)c1cccc(C(=O)Nc2ccccc2Cl)c1O` [Example 3, 2-Hydroxy-3-propionyl (o-chlorophenyl) benzamide], the LD50 ([2]; intraperitoneally to rats) was 3000 mg/kg and the “Compound activity / Standard activity” value [3] was 1.19.
With `CCOc1ccc(NC(=O)c2cccc(C(=O)CC)c2O)cc1` [Example 2, 2-Hydroxy-3-propionyl (4-ethoxyphenyl)benzamide] the LD50 ([2]; intraperitoneally to rats) was 3000 mg/kg and the “Compound activity / Standard activity” value [3] was 1.20.
In the case of `CCC(=O)c1cccc(C(=O)O)c1OCCN(CC)CC` [Example 7, 2(β-diethylamino)ethoxy-3-propionylbenzoic Acid], the LD50 [2] is reported as 3000 mg/kg, the antianaphylactic activity ([3]; qualitative statement) is reported as “most active product of this series” and the “Compound activity / Standard activity” value [3] is reported as 1.22.
